Values of other authors as cited in patent publication US12594236B2, “Method of treating acute exacerbation of schizophrenia with long-acting injectable depot composition” (LABORATORIOS FARMACEUTICOS ROVI, S.A., priority 2021, dated 2026).
Read-outs that look alike come from different tables or passages of the source.

Test system: acute schizophrenia

SMILES | placebo-adjusted reduction of the PANSS total score (441 mg, 12 weeks, oral aripiprazole 3 weeks after randomization) | placebo-adjusted reduction of the PANSS total score (882 mg, 12 weeks, oral aripiprazole 3 weeks after randomization) | placebo-adjusted reduction of the PANSS total score (25 mg eq, 13 weeks) | placebo-adjusted reduction of the PANSS total score (100 mg eq, 13 weeks) | placebo-adjusted reduction of the PANSS total score (150 mg eq, 13 weeks)
CCCCCCCCCCCC(=O)OCN1C(=O)CCc2ccc(OCCCCN3CCN(c4cccc(Cl)c4Cl)CC3)cc21 [Aripiprazole Lauroxil] | −10.9 | −11.9 | – | – | –
CCCCCCCCCCCCCCCC(=O)OC1CCCn2c1nc(C)c(CCN1CCC(c3noc4cc(F)ccc34)CC1)c2=O (centres unmarked) [Paliperidone Palmitate] | – | – | −5.1 | −8.7 | −9.8
